A short description of test [1]: Evaluated for binding constant with antigen meso-tetrakis (4-carboxyphenyl)porphyrin (TCPP) at 20% methanol content.
The nature of test [2]: Evaluated for binding constant with antigen meso-tetrakis (4-carboxyphenyl)porphyrin (TCPP) at 35% methanol content.
Test [3] can be described thus: Evaluated for binding constant with antigen meso-tetrakis (4-carboxyphenyl)porphyrin (TCPP) at 5% methanol content.
Test [4] can be described thus: Evaluated for binding constant with antigen meso-tetrakis (4-carboxyphenyl)porphyrin (TCPP) at 0% methanol content.
A short description of test [5]: Evaluated for binding constant with antigen meso-tetrakis (4-carboxyphenyl)porphyrin (TCPP) at 15% methanol content.
A short description of test [6]: Evaluated for binding constant with antigen meso-tetrakis (4-carboxyphenyl)porphyrin (TCPP) at 30% methanol content.
Test [7] can be described thus: Evaluated for binding constant with antigen meso-tetrakis (4-carboxyphenyl)porphyrin (TCPP) at 40% methanol content.

SMILES strings stand for the structures.

Take `CC[C@H](C)[C@H](NC(=O)[C@H](CCCN=C(N)N)NC(=O)CNC(=O)Cc1ccc2ccc3cccc4ccc1c2c34)C(=O)N[C@H]1CSSC[C@H](C(=O)N[C@H](C(=O)N[C@@H](CCCCN)C(=O)N[C@@H](Cc2ccc(O)cc2)C(N)=O)[C@H](C)O)NC(=O)CNC(=O)[C@H](CC(N)=O)NC(=O)[C@@H](C)NC(=O)[C@@H]2CCCN2C1=O`: the Ka is 140000 M⁻¹ in test [1]; 15000 M⁻¹ in test [2]; 420000 M⁻¹ in test [3]; 680000 M⁻¹ in test [4]; 260000 M⁻¹ in test [5]; 70000 M⁻¹ in test [6]. For the same compound, the Ka in test [7] amounted to 9700 M⁻¹.

The values are drawn from ChEMBL document CHEMBL1130910, “Design of novel porphyrin-binding peptides based on antibody CDR” (Bioorg Med Chem Lett, 1998).
